This note sets out measurements from patent US6087361A, “Aryl-imidazolines and aryl-imidazoles useful as α-2 adrenergic agonists without cardiovascular side effects” (Allergan Sales, Inc., priority 1997, dated 2000).

One series addresses I1 imidazoline receptor. The experiment in a line: I1 imidazoline receptor binding assay, 3H-clonidine, bovine VLM membranes. As to conditions: 25° C., 50 min. As for the experimental part: Fresh bovine brain stems were obtained from a local slaughter house. After removal of pia-arachnoid, the medulla was isolated by dissecting the brain stem about 1 cm posterior and 1 cm caudal to the obex. The ventral quadrants of the medulla excluding the pyramids were used as the VLM. For each preparation, 30 to 40 VLM were used. Initial homogenization was performed in 20 volumes of 5 mM HEPES buffer (pH 7.4 at 4° C.) containing 250 mM sucrose, 50 uM Calpain I inhibitor (Boehginer Mannheim, Indianapolis, Ind.), 100 uM 1,10-phenanthroline (Sigma, St. Louis, Mo.) and 50 uM Pefabloc (Boehginer Mannheim, Indianapolis, Ind.), using Virtis homogenizer at setting 7 with three 10 second pulses, followed by three passes in a teflon-glass tissue homogenizer. The inhibitors were added to prevent degradation by proteases and peptidases. The homogenates were then centrifuged at 1000× g for 10 min and the resulting pellets were re-homogenized and centrifuged. Supernatants resulted from both runs were combined and centrifuged for 20 min at 48000× g. The pellets obtained were resuspended in a teflon-glass homogenizer in 50 mM Tris-HCl with 5 mM EDTA (pH 7.7 at 4° C.), centrifuged, and resuspended in 50 mM Tris-HCl with 25 mM NaCl, pH 7.7 at room temp. To remove endogenous ligands, the homogenate was incubated 30 min at room temp before it was centrifuged for 20 min at 48000× g. The pellets were then washed with 50 mM Tris-HCl buffer, (pH 7.4 at 4° C.) and loaded on top of 5 mM HEPES/0.85 M sucrose (pH 7.4 at 4° C.). Pellets obtained after centrifugation at 48000× g for 20 min were saved. The fatty connective tissue on the top layer was discarded. The partially purified VLM membrane pellets were then washed twice with 50 mM Tris-HCl, pH 7.7 at 4° C., flash frozen in dry ice/acetone slush, and stored at -100° C. until use. Receptor binding experiments were performed within days after the membrane preparation.
I1 imidazoline receptor binding affinity was determined from radioligand binding of ^3 H-clonidine (NEN, Boston, Mass.) to bovine VLM membranes. Specific activity of ^3 H-clonidine was 43 Ci/mmol. Kd of ^3 H-clonidine binding to the I1 imidazoline receptor was determined by saturation experiments and Ki of other ligands studied were determined by competition experiments. The radioligand binding assay was performed in Teflon 96-wells with the Biomek-1000 robotics (Beckman Instruments, Fullerton, Calif.). Each well contained […] ^3 H-Clonidine and 0.3 to 0.5 mg of bovine VLM protein in 5 mM HEPES buffer containing 0.5 mM EGTA and 0.5 mM MgCl2, pH 7.4 (0.1 mM ascorbic acid was added just before the protein). After 50 min of incubation at 25° C., the reaction was terminated by rapid filtration over Whatman GF/B filters treated with 0.1% polyethyleneimine and washed with 12 ml ice cold 50 mM Tris-HCl, pH 7.4 at 4° C. in a Brandel Harvester (Brandel, Gaithersburg, Md.). Both `hot` and `cold` saturation experiments were performed. In `hot` saturation experiments, studies were performed with ^3 H-clonidine ranging from 0.1 to 50 nM. In `cold` saturation experiments, studies were performed with 2 nM ^3 H-clonidine with 20 different concentrations of the unlabeled clonidine, ranging from 0.1 nM to 1 uM unlabeled clonidine. Non specific binding was defined by parallel incubations containing 10^-5 M phentolamine or naphazoline. Imidazoline binding was determined by parallel incubations in which the alpha-adrenergic sites were masked with 10^-5 M norepinephrine. During competition experiments, ligands of 20 concentrations ranged from 10^-11 to 10^-4 were used. Radioactivity was counted in a Beckman LS-3801 scintillation counter. Data were captured and analyzed with Accufit saturation and competition softwares modeled both for one-site and two-site fits (Beckman Instruments, Fullerton, Calif.) using an IBM compatible computer. All experiments were repeated at least twice.

A further series has as its target I2A. The experiment in a line: Receptor binding, I2A.
The target in a further series is α1. Kind of series: Receptor binding, [3H]prazosin, human cerebral cortex membranes (HCC). As to conditions: 22° C., 30 min. How it is done:
Tissue preparation: Membrane suspensions were prepared from human cerebral cortex ([…], for α1 receptors) obtained from the UCI Organ and Tissue Bank. Briefly, tissues (1 g) were homogenized in 25 mL of ice-cold 5 mM Tris, pH 7.4 with a Polytron homogenizer for 30 sec at setting #7, and centrifuged for
10-12 minutes at 300× g at 4° C. The supernatant was filtered through 2 layers of gauze and diluted 1:2 with 50 mM Tris-HCl buffer, pH 7.4, then centrifuged at 49,000× g for 20 minutes. The pellet fraction was washed 3 times (resuspended in Tris-HCl buffer and centrifuged for 20 minutes; at 49,000× g). The pellet was then stored at -80° C. until the binding assay.
Binding Studies: The radioligands [^3 H]rauwolscine (specific activity 80 Ci/mmol) and [^3 H]prazosin (specific activity 76 Ci/mmol) were obtained from New England Nuclear, Boston, Mass. Frozen membrane pellet was resuspended in 25 mM glycine/glycine, pH 7.5 and incubated with radioligand under the following conditions: CHO-C10, CHO-RNG, CHO-C4-[^3 H]rauwolscine, 22° C., 30 minutes; RKC-[^3 H]rauwolscine, 0° C., 120 minutes; and, HCC-[^3 H]prazosin, 22° C., 30 minutes in a final volume of 500 ul. At the end of the incubation period, the samples were filtered through glass filters (Whatman GF/B) in a 96 well cell harvester and rapidly washed four times with 4 mL of iced-cold 50 mM Tris-HCl buffer. The filters were then oven dried and transferred to scintillation vials containing 10 mL of Beckman's Ready Protein® scintillation cocktail for counting. […] Protein concentrations were determined with a protein assay kit from Bio Rad. Binding isotherms, equilibrium dissociation and affinity constants were analyzed and determined by the non-linear least squares curve fitting programs EBDA (BioSoft) or AccuFit Competition/Saturation by Beckman.
The radioligands [^3 H] rauwolscine (specific activity 80 Ci/mmol) and [^3 H] prazosin (specific activity 76 Ci/mmol) were obtained from New England Nuclear, Boston, Mass. Frozen membrane pellet was resuspended in 25 mM glycine/glycine, pH 7.4 and incubated with radioligand under the following conditions: CHO-C10, CHO-RNG, CHO-C4-[^3 H]rauwolscine, 22° C., 30 min.; and, HCC-[^3 H]prazowsin, 22° C., 30 minutes in a final volume of 500 ul. At the end of the incubation period, the samples were filtered through glass fiber filters (Whatman GF/B) in a 96 well cell harvester and rapidly washed four times which 4 mL of iced-cold 50 mM Tris-CHI buffer. The filters were then oven dried and transferred to scintillation vials containing 5 mL of Beckman's Ready Protein® scintillation cocktail for counting. […] Protein concentrations were determined with a protein assay kit from Bio lad. Binding isotherms, equilibrium dissociation and affinity constants were analyzed and determined by the non-linear least squares curve fitting programs AccuFit Competition/Saturation by Beckman.
Representative compounds of the present invention were tested according to the procedures given above. […] The receptor binding studies and K1 are measures of the affinity of a compound for a particular receptor.

For series [1] the following is noted: rabbit.

The term Ki denotes a dissociation constant, usually derived from enzyme kinetics or from competition with a known ligand. A low value points to higher affinity.

In the case of `COc1ccc(NC2=NCCN2)c(C)c1OC` [Example 12], the Ki at I1 imidazoline receptor is 0.34 µM; at I2A, 100 µM; at α1 it was 1.45 µM.
`Cc1c(NC2=NCCN2)ccc2c1NCCN2` [Example 8]: the Ki on I1 imidazoline receptor came to 100 µM; on I2A, 100 µM; on α1, 8.71 µM.
For the molecule `c1cc2c(cc1NC1=NCCN1)NCCN2` [Example 7], the figures for the Ki on I1 imidazoline receptor, on I2A and on α1 were 1.99 µM, 100 µM and 5.1 µM, respectively.
Turning to `Nc1cc(Cl)c(NC2=NCCN2)c(Cl)c1` [Example 3], the results for the Ki at I1 imidazoline receptor, at I2A and at α1 were 0.019 µM, 64.8 µM and 0.181 µM, respectively.
With `Cc1cccc(Nc2ncc[nH]2)c1C` [Example 18], the Ki on I1 imidazoline receptor turned out to be 0.019 µM; on I2A it was 0.141 µM; at α1, 5.21 µM.
For `Cc1ccccc1NC1=NCCN1` [Example 1], the Ki amounted to 0.012 µM on I1 imidazoline receptor, 1.2 µM on I2A and 5.03 µM at α1.
In the case of `CC1CNc2c(ccc(NC3=NCCN3)c2Br)N1` (stereo not drawn) [Example 10], the Ki worked out at 3.95 µM on I1 imidazoline receptor, 24.8 µM at I2A and 6.61 µM at α1.
With `O=C1COc2ccc(NC3=NCCN3)cc2N1` [Example 14], the results for the Ki at I1 imidazoline receptor, at I2A and on α1 were 11.6 µM, 4.5 µM and 8.99 µM, respectively.
As for `Cc1c(NC2=NCCN2)ccc2c1NC(=O)CO2` [Example 15], the Ki was determined as 100 µM on I1 imidazoline receptor and 2.26 µM on α1.
Turning to `Brc1c(NC2=NCCN2)ccc2c1NCCN2` [Example 9], the figures for the inhibition constant Ki on I1 imidazoline receptor, at I2A and at α1 were 4.58 µM, 7.56 µM and 1.12 µM, respectively.
As to `Cc1c(NC2=NCCN2)ccc2c1NCCO2` [Example 16], the Ki on I1 imidazoline receptor is 7.11 µM; on I2A, 100 µM; on α1 it was 0.473 µM. For the same molecule, the “IOP of the untreated eye (systemic effect)” value in series [1] (in vivo) is given as “without lowering IOP in the untreated eye”. For the same molecule, the “lowering of intraocular pressure (IOP), treated eye” value in series [1] (single drop of 0.001%, topical, one eye) is listed as “greater effect in lowering IOP than clonidine”.
Take `Cc1c(O)cccc1Nc1ncc[nH]1` [Example 20]: the figures for the Ki at I1 imidazoline receptor and on α1 were 0.412 µM and 11.3 µM, respectively.
In the case of `COc1c(C(C)(C)C)cc(C)c(Nc2ncc[nH]2)c1C` [Example 22], the Ki at I1 imidazoline receptor worked out at 4.32 µM; on I2A, 100 µM; on α1, 4.17 µM.
Turning to `Cc1c(NC2=NCCN2)ccc2c1OCCO2` [Example 13], the results for the Ki on I1 imidazoline receptor, at I2A and at α1 were 0.831 µM, 100 µM and 0.129 µM, respectively.
For the molecule `c1cc2c(cc1NC1=NCCN1)OCCO2` [Example 11], the Ki at I1 imidazoline receptor is 1.83 µM; at I2A, 1.08 µM; at α1, 2.4 µM.
